In patent US4853385A, “7-N,8-N-Ethylenemitomycin 8-imines” (Kyowa Hakko Kogyo Co., Ltd., priority 1987, dated 1989):

Key:
[1] = Acute toxicity (LD50, Beherns Kaerber's method); conditions: mouse, in vivo, ip; single i.p. administration, 14 days observation, ddY mice
Protocol: (§1) Some compounds were chosen from Compound I, and antitumor activity (ED50) against Sarcoma 180 solid tumor and acute toxicity (LD50) were measured.
Each animal of the test group consisting of 5 ddY mice was administered intraperitoneally once with a test compound. […] The LD50 was determined by Beherns Kaerber's method.

Sarcoma 180 solid tumor = assay: Antitumor activity against sarcoma 180 solid tumor (tumor volume T/C, ED50); type: in vivo; conditions: ddY mice; for CI (chemotherapy index, LD50/ED50): sarcoma 180 solid tumor, i.p.; for ED50: Mus musculus, Sarcoma-180, ip, 168 h, i.p. 24 h after s.c. implantation, tumor volume at 7 days, dose for T/C 0.5
Protocol: as §1
(1) Effect on sarcoma 180 solid tumor
Sarcoma 180 cells of 5×10^6 were intraperitoneally implanted into ddY mice. Seven days after, the cells were collected from the ascites. The cells were washed once with a sterile physiological saline, and the cells were suspended in sterile physiological saline to prepare a cell suspension containing 5×10^7 cells per ml. 0.1 ml of the suspension was subcutaneously implanted into the right axilla of male ddY mice weighing 20±2 g. The test compound was dissolved in physiological saline with or without addition of Tween 80 and was administered intraperitoneally into each mouse of a group consisting of 5 mice at a dose of 0.1-0.2 ml, 24 hours after the implantation of the tumor cells.
The anti-tumor activity was determined in the following manner. 7 days after the implantation, the major axis (a) and the minor axis (b) of the tumor were measured to calculate a value of "a×b^2 /2" which corresponds to the volume of the tumor. The anti-tumor activity was expressed by the ratio (T/C) of the volume (T) of the tumors of the group of animals administered with the test compound to the corresponding volume (C) of tumors of the untreated animals.
(2) Determination of ED50 :
On graph paper, T/C was indicated by an arithmetic scale on the longitudinal axis and the administered amount of the test compound was indicated by a logarithmic scale on the lateral axis. The relationship between the dose and T/C was plotted by a straight line determined by the method of least squares, from which a dose corresponding to T/C of 0.5 was obtained.
CI in the table indicates chemotherapy index and given by:
As is clear from this definition, the CI value reflects selective toxicity against tumor. As the CI value is larger, the effect as an antitumor agent is more excellent, and from a clinical viewpoint, allowance of chemicals in dosage becomes broader. Therefore, the CI value is one of the most important indices in evaluation of antitumor agents.

[2] = system: mitomycin C-resistant P-388; assay: Antitumor activity against mitomycin C-resistant P-388; type: in vivo, CDF1 mice (P-388 from DBA/2 mice); conditions: single i.p.
Protocol: (§2) Some compounds were chosen from Compound I and antitumor activity against lymphocytic leukemia P-388 and mitomycin C-resistant P-388 was measured.
(§3) From the peritoneal cavity of P-388 ascitic tumor-bearing mice (DBA/2) 7 days after the implantation, an ascitic fluid was collected. The cell number of P-388 in the ascitic fluid was counted, and the cells were suspended in sterile physiological saline to prepare a tumor cell suspension containing 5×10^6 cells/ml. 0.2 ml (containing 1×10^6 cells) of the suspension was implanted intraperitoneally into CDF1 mice weighing 20 to 25 g. The test compound was intraperitoneally administered to each mouse of one test group consisting of 6 CDF1 mice at a single dosage in 24 hours after the implantation of the tumor. 33-Day observation gave the survived life span for each mouse. Evaluation of the effect of the test compound was made by a ratio of a mean survival days after the implantation of the mice treated with the test compound to a mean survival days of the mice untreated with the test compound in the control group (Increased Life Span, ILS%). Then, ILS*, which is a ratio of ILS % of the test compound to ILS % of mitomycin C used as a reference compound under the same conditions, was calculated and shown in Table 4.
Further, the experiment was carried out in the same manner as above, using lymphocytic leukemia P-388 resistant to mitomycin C. Evaluation of the effect of the test compound is shown by a ratio (ILS %) to a mean survival data of the control group (untreated mice).

[3] = system: lymphocytic leukemia P-388; assay: Antitumor activity against lymphocytic leukemia P-388; type: in vivo, CDF1 mice (P-388 from DBA/2 mice); conditions: single i.p., 33-day observation
Protocol: as §2
The experiment was carried out by the following method.
as §3

Compound: CO[C@@]12[C@H](COC(N)=O)C3=C(C(=O)C(C)=C4NCCN=C43)N1C[C@H]1[C@@H]2N1C (stereo partly drawn) [Compound 1, 7-N,8-N-ethyleneporfiromycin 8-imine]
- LD50 at 336 h [1]: 2.6 mg/kg
- CI (chemotherapy index, LD50/ED50) (Sarcoma 180 solid tumor): 1.73
- ED50 (Sarcoma 180 solid tumor): 1.5 mg/kg
- ILS(%) (ratio to mean survival of the untreated control group) ([2]; mitomycin C-resistant P-388, dose 1.5 mg/kg): 135%
- ILS* (ratio of ILS % of test compound to ILS % of mitomycin C) ([3]; P-388, dose 1.5 mg/kg): 0.60

Compound: CC1=C2NCCN=C2C2=C(C1=O)N1C[C@H]3[C@H](N3C)[C@]1(O)[C@H]2COC(N)=O (stereo partly drawn) [Compound 2, 7-N,8-N--Ethylenemitomycin D 8-imine]
- LD50 at 336 h [1]: 22.5 mg/kg
- CI (chemotherapy index, LD50/ED50) (Sarcoma 180 solid tumor): 2.12
- ED50 (Sarcoma 180 solid tumor): 10.6 mg/kg

Compound: CO[C@]12[C@@H]3[C@H](CN1C1=C(C4=NCCNC4=C(C)C1=O)[C@@H]2COC(N)=O)N3C (stereo partly drawn) [Compound 3, 7-N,8-N--Ethylenemitomycin E 8-imine]
- LD50 at 336 h [1]: 5.6 mg/kg
- CI (chemotherapy index, LD50/ED50) (Sarcoma 180 solid tumor): 1.51
- ED50 (Sarcoma 180 solid tumor): 3.7 mg/kg

Compound: C=C1C2=C(C(=O)C(C)=C3NCCN=C32)N2C[C@H]3[C@H](N3C)[C@]12O (stereo partly drawn) [Compound 4, 9a-O--Demethyl-7-N,8-N--ethylenemitomycin G 8-imine]
- LD50 at 336 h [1]: 100 mg/kg
- CI (chemotherapy index, LD50/ED50) (Sarcoma 180 solid tumor): 2.11
- ED50 (Sarcoma 180 solid tumor): 47.5 mg/kg

Compound: CO[C@@]12[C@H](COC(N)=O)C3=C(C(=O)C(C)=C4NC5CCCCC5N=C43)N1C[C@H]1[C@@H]2N1C (stereo partly drawn) [Compound 5, 7-N,8-N--(1,2-Cyclohexylene) porfiromycin 8-imine]
- ILS(%) (ratio to mean survival of the untreated control group) ([2]; mitomycin C-resistant P-388, dose 1.25 mg/kg): 144%
- ILS* (ratio of ILS % of test compound to ILS % of mitomycin C) ([3]; P-388, dose 1.25 mg/kg): 0.56

Compound: CO[C@@]12[C@H](COC(N)=O)C3=C(C(=O)C(C)=C4NCCN=C43)N1C[C@@H]1N[C@@H]12 [Compound A, 7-N,8-N-ethylenemitomycin C 8-imine, reference compound]
- LD50 at 336 h [1]: 6.5 mg/kg
- CI (chemotherapy index, LD50/ED50) (Sarcoma 180 solid tumor): 1.10
- ED50 (Sarcoma 180 solid tumor): 5.9 mg/kg
- ILS(%) (ratio to mean survival of the untreated control group) ([2]; mitomycin C-resistant P-388, dose 100 mg/kg): 107%
- ILS* (ratio of ILS % of test compound to ILS % of mitomycin C) ([3]; P-388, dose 100 mg/kg): 0.43
